A melting point compilation (Tetko et al.)

SMILES	melting point
COc1cc(C=CC(=O)O)cc(OC)c1OC	127 °C
COc1ccc(C(=O)O)cc1OCc1ccccc1	180 °C
COc1ccc(C)cc1S(=O)(=O)Cl	82 to 84 °C
CC(C)CC(N)C(=O)Nc1ccc([N+](=O)[O-])cc1 (stereo not given)	90 °C
O=C(CBr)c1ccc(-c2ccccn2)s1	123 to 126 °C
CC(=O)Nc1ccc(Br)c(Cl)c1	125 to 128 °C
CC(C)=CCCC(C)=CC=CC(C)=CC=CC(C)=CC=CC=C(C)C=CC=C(C)C=CC1C(C)=CCCC1(C)C (stereo not given)	140 °C
COC(=O)c1ccc(C=CC(=O)c2ccccc2)cc1	119 to 120 °C
N#Cc1ccccc1-n1cccc1	51 °C
CCCCCCCCc1ccccc1	-36 °C
CCCC(O)C(=O)O (stereo not given)	34 °C
CC(CCC(=O)O)C1CCC2C3C(O)CC4CC(O)CCC4(C)C3CC(=O)C12C (stereo not given)	220 °C
CC12CC1(C)C(=O)N(c1cc(Cl)cc(Cl)c1)C2=O (stereo not given)	166 °C
O=C=Nc1cccc(COc2ccccc2)c1	51 to 53 °C
COc1ccccc1C(=S)N1CCCCC1	85 °C
NC(=O)c1ccc(C(N)=O)cc1	332 °C
O=[N+]([O-])c1cccc(-c2nnc3n2NC(c2ccccc2)S3)c1 (stereo not given)	205 °C
Cc1ccc(C(=O)C=Cc2ccc(-c3ccc([N+](=O)[O-])cc3)o2)o1	178 to 179 °C
N=C(N)NCCS(=O)(=O)O	263 to 265 °C

SMILES	melting point
CCC(C)(CC)OC(N)=O	56 °C
Cc1c(C)c2c(c3c1C(=O)C3)CC2=O	207 °C
NCC[C@H](O)C(=O)O	200 to 203 °C
Cc1nc(-c2ccc(C(F)(F)F)cc2)sc1C(=O)O	237 to 238 °C
COc1ccc(Cl)nn1	91 °C
NS(=O)(=O)c1cc(C(=O)OCOC(=O)c2ccccc2)c(NCc2ccco2)cc1Cl	179 °C
Brc1ccc(Br)nn1	116 to 117 °C
Cc1cc(=O)oc2cc(O)cc(O)c12	299 °C
CCC(C)(Cl)Cl	-74 °C
COc1nc(Cl)nc(OC)n1	77 °C
O=C1c2ccccc2-c2ccc3c4ccc5c6c(ccc(c7ccc1c2c73)c64)C(=O)c1ccccc1-5	492 °C
O=CC1=Cc2cc(O)ccc2OC1	165 °C
c1ccc(-c2ccc(-c3nnc(-c4ccccc4)o3)cc2)cc1	168 to 172 °C
CC(=O)OC1CC2C(C)C(=O)C3(C4CC5C(C)(C)CCC(OC(C)=O)C5(C(OC(C)=O)O4)C13)C2OC(C)=O (stereo not given)	265 °C
Cc1cc(Cl)ccc1OC(C)C(=O)Nc1ccc2nc(SCc3ccccc3)sc2c1 (stereo not given)	168 °C
C1=CC2(CC2)C2C1C1C=CC2C12CC2 (stereo not given)	45 °C
COC1(C)CC(c2ccccc2)c2c(c3ccccc3oc2=O)O1 (stereo not given)	166 °C
O=c1c2ccccc2cc2ccc3ccccc3n12	125 °C
CCO[Si](Cl)(OCC)OCC	-51 °C

SMILES	melting point
NC(Cc1c[nH]c2ccc(F)cc12)C(=O)O (racemic)	238 to 239 °C
NC(=C(N)c1ccccc1)c1ccccc1	108 °C
C=CC(C)O (stereo not given)	-100 °C
O=C1NC(=S)NC(=O)C1=NNc1ccccc1[N+](=O)[O-]	330 °C
N#Cc1cc(Br)ccc1O	160 to 162 °C
CC(=O)OC1CCC2C3CCC4CC(C#Cc5ccccc5)(OC(C)=O)CCC4(C)C3CCC12C (stereo not given)	100 to 111 °C
O=C(O)C(Br)CBr (stereo not given)	66.5 °C
CCOC(=O)c1c(C)csc1N	81 °C
O=C1CCC/C1=C1\C(=O)Nc2ccccc21	267 °C
O=C(NC(CO)Cc1ccccc1)OCc1ccccc1 (stereo not given)	94 °C
NC(=S)c1ccncc1	201 °C
O=C(Cc1ccccc1)C(Cc1ccccc1)=NNc1ccccc1	137 °C
CC(C)(C)C(=O)Nc1ccc2nn(C3CCCC3)nc2c1	136 °C
Cn1sc(Cl)cc1=O	52 °C
N#Cc1cnn(-c2ccccc2)c1-n1cccc1	81 to 83 °C
CN1CCC(=C2c3ccccc3CC(=O)c3sccc32)CC1	152 °C
O=C(O)c1cc2cnccc2nc1C(F)(F)F	233 to 235 °C
O=CC=Cc1ccccc1[N+](=O)[O-]	125 to 129 °C
CC(=O)OC1(C(C)=O)CCC2C3CCC4=CC(=O)CCC4(C)C3(F)C(O)CC21C (stereo not given)	268 °C

Other lines, results leading:

melting point	SMILES
119 °C	CC(=O)OC1CCC2(C)C(CCC3C4CC=C(C=Cc5ccccc5)C4(C)CCC32)C1 (stereo not given)
130 °C	CN1C(CC(=O)c2ccccc2)CCCC1CC(O)c1ccccc1 (stereo not given)
190 °C	N=C1NC(=N)c2ccccc21
207 °C	Cc1nc([N+](=O)[O-])cn1CCC(N)=NO
270 °C	O=C(O)c1cc(O)c(Br)c(O)c1
102 °C	S=C(Nc1ccccc1)c1ccccc1
216 °C	Cn1c(=O)cc(NN)c2ccccc21
> 300 °C	C/C(=N\c1cccc2cccc(N)c12)c1c(O)c2ccccc2n(-c2ccccc2)c1=O
248 °C	O=C(Nc1ccccc1)c1cc2ccccc2cc1O
60 to 64 °C	CC(C)(C)C(=O)Nc1ccncc1C=O
40 °C	CC(C)(C)c1ccc(C(=O)c2ccccc2)cc1
87 to 89 °C	CCOC(=O)c1sc(-c2ccc(C(F)(F)F)cc2)nc1C
293 to 296 °C	c1ccc(-c2nc3ccccc3[nH]2)cc1
164 °C	CC(=O)OC1CCC2(C)C3CCC4(C)C(C(C)CCCC(C)C)CCC4C3CC(OC(C)=O)C2(O)C1 (stereo not given)
295 °C	Nc1c(O)cc(S(=O)(=O)O)c2ccccc12
223 °C	Cc1onc(-c2c(Cl)cccc2Cl)c1C(=O)O
284 to 287 °C	O=C(O)c1csc2ccc(Br)cc12

melting point	SMILES
77 to 82 °C	O=[N+]([O-])c1ccc(Cl)cc1CO
325 °C	Nc1ncnc2[nH]ncc12
62 to 64 °C	N#Cc1ccccc1COc1ccccc1
162 °C	CCC(C(=O)NC(N)=O)c1ccccc1 (stereo not given)
82.7 °C	CCCCCCCCCCCCCC(=O)Oc1ccc(N=Cc2cccnc2)cc1
30.5 °C	CCOC(=O)c1ccc(CBr)cc1
104 °C	Cc1n[nH]c(C)c1C(C)(C)C
273 to 276 °C	O=[N+]([O-])c1ccc(N/N=C2\Cc3c2ccc2ccccc32)c([N+](=O)[O-])c1
122 °C	COc1ccc(C#N)cc1Br
223 °C	O=Cc1cc(O)c(O)cc1O
295 °C	N#CC(c1ccc(Cl)cc1)c1c(Cl)cc(-n2ncc(=O)[nH]c2=O)cc1Cl (stereo not given)
28 to 30 °C	COc1ccc(CCO)cc1
32 °C	Cc1nc(Cl)ccc1I
82 to 83 °C	COC(=O)c1cc(Cl)nc(Cl)c1
226 °C	Cc1cc(N=Nc2ccc(N=Nc3ccccc3)cc2)c(C(C)C)cc1N=Nc1ccc(N=Nc2ccccc2)cc1
308 to 310 °C	Cc1nn(C)c(Cl)c1S(=O)(=O)O
